Data taken from the NIST ThermoML archive (doi:10.1021/je501051p).

Test: mn = molality of the nth substance listed, in mol/kg
Details: 303 K, Ring tensiometer

CCCCCCCCc1ccc(C(=O)[O-])cn1.[Na+] [sodium 6-octylnicotinate] + O
Details	surface tension liquid-gas [mN/m]
m1 = 5e-05	69
m1 = 7.145e-05	68.3
m1 = 0.0001	67
m1 = 0.0001545	66
m1 = 0.0002512	64.9
m1 = 0.0003972	63.6
m1 = 0.0006397	61.8
m1 = 0.001	60
m1 = 0.0015	58.4
m1 = 0.002	57.4
m1 = 0.0025	57.4
m1 = 0.002999	57.4
m1 = 0.003999	57.4
m1 = 0.005	56
m1 = 0.006427	54.22
m1 = 0.009016	52.4
m1 = 0.01	49.5
m1 = 0.013	48
m1 = 0.015	47.5
m1 = 0.01702	45
m1 = 0.02	44
m1 = 0.025	44
m1 = 0.02999	44
m1 = 0.03499	44

CCCCCCCCCCc1ccc(C(=O)[O-])cn1.[Na+] [sodium 6-decylnicotinate] + O
Details	surface tension liquid-gas [mN/m]
m1 = 1e-05	65
m1 = 1.479e-05	63.7
m1 = 2.512e-05	62.02
m1 = 4.074e-05	59.6
m1 = 5.495e-05	58.45
m1 = 7.586e-05	56.75
m1 = 0.0001	55.75
m1 = 0.000123	54.56
m1 = 0.0001514	53.1
m1 = 0.000182	51.77
m1 = 0.0002042	50.5
m1 = 0.0002512	49.5
m1 = 0.000302	48.5
m1 = 0.0003548	47
m1 = 0.0004074	47
m1 = 0.0005012	47
m1 = 0.0006166	47
m1 = 0.0008128	46.5
m1 = 0.001	46
m1 = 0.001514	45.6
m1 = 0.002042	45
m1 = 0.002291	44.5
m1 = 0.002512	44
m1 = 0.002754	43.5
m1 = 0.00302	42.5
m1 = 0.003311	42.5
m1 = 0.003548	42.5
m1 = 0.004074	42.5
m1 = 0.005012	42.5
m1 = 0.006026	42.5

CCCCCCCCCCc1ccc(C(=O)NCC(=O)[O-])cn1.[Na+] [sodium (6-decylnicotinoyl)glycinate] + O
Details	surface tension liquid-gas [mN/m]
m1 = 1.995e-05	64.7
m1 = 2.818e-05	61.8
m1 = 4.786e-05	59.4
m1 = 5.888e-05	58.1
m1 = 8.128e-05	56.6
m1 = 0.0001148	55.2
m1 = 0.0001514	53.2
m1 = 0.0002512	52.5
m1 = 0.000302	50
m1 = 0.0005012	47
m1 = 0.0008128	46
m1 = 0.001	45
m1 = 0.001514	44
m1 = 0.002042	43
m1 = 0.002291	42
m1 = 0.002512	40.5
m1 = 0.00302	40.5
m1 = 0.003548	40.5
m1 = 0.004074	40.5
m1 = 0.005012	40.5
m1 = 0.006026	40.5
